Source: patent US20060069132A1, “Azolecarboxamide herbicides” (priority 2004, published 2006)

Legend:
pigweed = assay: Test B pre-/postemergence herbicide test; format: in vivo, Amaranthus retroflexus; details: for Plant response rating (0 to 100 scale), Pigweed: 0 is no effect, 100 is complete control, preemergence
Procedure, shortened: (§1)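 Plants compared with untreated controls 13–15 days post-treatment and given a visual 0–100 injury score. Applications: preemergence to seeds; postemergence at 1- to 4-leaf (2–18 cm); paddy species flooded, 2-leaf stage. Vehicle non-phytotoxic, surfactant included.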

Surinam grass = assay: Test B pre-/postemergence herbicide test; format: in vivo, Urochloa decumbens; details: for Plant response rating (0 to 100 scale), Surinam Grass: 0 is no effect, 100 is complete control, preemergence
Procedure, shortened: as §1

cocklebur = assay: Test B pre-/postemergence herbicide test; format: in vivo, Xanthium strumarium; details: for Plant response rating (0 to 100 scale), Cocklebur: 0 is no effect, 100 is complete control, preemergence
Procedure, shortened: (§2)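 Flooded paddy rice and barnyardgrass were treated at the 2-leaf stage; upland plantings received compound either on sown seed or on 1- to 4-leaf seedlings. All were kept 13–15 days in a greenhouse and scored visually, 0–100, relative to untreated plants.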

[1] = tested on: small flower umbrella sedge; assay: Test B flooded paddy test; format: in vivo, Cyperus difformis; details: 1000 g ai/ha, scale 0 to 100 (0 no effect, 100 complete control)
Procedure, shortened: (§3)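 After treating 2-leaf paddy plants or 2–18 cm postemergence plants (1 to 4 leaves) with formulated chemical, researchers kept them in a greenhouse for 13–15 days. Effects were judged visually versus controls: 0 indicates none, 100 total control.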

rice = assay: Test B flooded paddy test; format: in vivo, Oryza sativa; details: 1000 g ai/ha, scale 0 to 100 (0 no effect, 100 complete control)
Procedure, shortened: (§4)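 Formulated test chemicals went onto postemergence plants measuring 2 to 18 cm, at one to four leaves. For the paddy assay, species had reached two leaves. Scoring took place 13–15 days later by eye, relative to untreated plants, using 0 for no effect up to 100 for full control.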

barnyardgrass [2] = assay: Test B flooded paddy test; format: in vivo, Echinochloa crus-galli; details: 1000 g ai/ha, scale 0 to 100 (0 no effect, 100 complete control)
Procedure, shortened: as §3

barnyardgrass [3] = assay: Test B pre-/postemergence herbicide test; format: in vivo, Echinochloa crus-galli; details: for Plant response rating (0 to 100 scale), Barnyardgrass: 0 is no effect, 100 is complete control, preemergence; for Barnyardgrass plant response rating: scale 0 (no effect) to 100 (complete control)
Procedure, shortened: as §2

wild oat = assay: Test B postemergence herbicide test; format: in vivo, Avena fatua
Procedure, shortened: as §4

velvetleaf = assay: Test B pre-/postemergence herbicide test; format: in vivo, Abutilon theophrasti; details: for Plant response rating (0 to 100 scale), Velvetleaf: 0 is no effect, 100 is complete control, preemergence
Procedure, shortened: as §1

giant foxtail = assay: Test B pre-/postemergence herbicide test; format: in vivo, Setaria faberi; details: for Plant response rating (0 to 100 scale), Foxtail, Giant: 0 is no effect, 100 is complete control, preemergence
Procedure, shortened: as §1

lambsquarters = assay: Test B pre-/postemergence herbicide test; format: in vivo, Chenopodium album; details: for Plant response rating (0 to 100 scale), Lambsquarters: 0 is no effect, 100 is complete control, preemergence
Procedure, shortened: as §1

morningglory = assay: Test B pre-/postemergence herbicide test; format: in vivo, Ipomoea coccinea; details: for Plant response rating (0 to 100 scale), Morningglory: 0 is no effect, 100 is complete control, preemergence
Procedure, shortened: as §2

corn = assay: Test B pre-/postemergence herbicide test; format: in vivo, Zea mays; details: for Plant response rating (0 to 100 scale), Corn: 0 is no effect, 100 is complete control, preemergence
Procedure, shortened: as §1

wheat = assay: Test B postemergence herbicide test; format: in vivo, Triticum aestivum; design: key to Wheat plant response rating: 0 = no effect, 100 = complete control
Procedure, shortened: as §4

large crabgrass = assay: Test B pre-/postemergence herbicide test; format: in vivo, Digitaria sanguinalis; details: for Plant response rating (0 to 100 scale), Crabgrass, Large: 0 is no effect, 100 is complete control, preemergence
Procedure, shortened: as §1

[4] = 125 g ai/ha, visual rating, scale 0 (no effect) to 100 (complete control), postemergence
[5] = Postemergence, 500 g ai/ha, scale 0 (no effect) to 100 (complete control)
[6] = 125 g ai/ha, visual rating, postemergence
[7] = 500 g ai/ha, scale 0 to 100, 0 no effect, 100 complete control, preemergence
[8] = postemergence, 125 g ai/ha, scale 0 to 100

| Structure (SMILES) | Plant response rating (0 to 100 scale), Pigweed (pigweed; 125 g ai/ha) | Pigweed plant response rating (pigweed; [5]) | Plant response rating (0 to 100 scale), Surinam Grass (Surinam grass; 125 g ai/ha) | Surinam Grass plant response rating (Surinam grass; [5]) | Plant response rating (0 to 100 scale), Cocklebur (cocklebur; 125 g ai/ha) | Cocklebur plant response rating (cocklebur; [5]) | Sedge, Umbrella plant response rating [1] | Rice plant response rating (rice) | Barnyardgrass plant response rating (barnyardgrass [2]) | Plant response rating (0 to 100 scale), Barnyardgrass (barnyardgrass [3]; 125 g ai/ha) | Barnyardgrass plant response rating (barnyardgrass [3]; Postemergence, 500 g ai/ha) | Oat, Wild plant response rating (wild oat; [5]) | Plant response rating (0 to 100 scale), Velvetleaf (velvetleaf; 125 g ai/ha) | Velvetleaf plant response rating (velvetleaf; [5]) | Plant response rating (0 to 100 scale), Foxtail, Giant (giant foxtail; 125 g ai/ha) | Foxtail, Giant plant response rating (giant foxtail; [5]) | Plant response rating (0 to 100 scale), Lambsquarters (lambsquarters; 125 g ai/ha) | Lambsquarters plant response rating (lambsquarters; [5]) | Plant response rating (0 to 100 scale), Morningglory (morningglory; 125 g ai/ha) | Morningglory plant response rating (morningglory; [5]) | further results |
| --- | --- | --- | --- | --- | --- | --- | --- | --- | --- | --- | --- | --- | --- | --- | --- | --- | --- | --- | --- | --- | --- |
| CCc1nn(C(C)(C)C)nc1C(=O)Nc1cccc(C(=S)N(C)C)c1 [Compound 395] | 100 | 60 | 90 | 60 | 60 | 80 | 90 | 80 | 90 | 90 | 70 | 40 | 80 | 60 | 100 | 50 | 100 | 100 | 80 | 80 | Pigweed plant response rating (pigweed; [4]): 40; Surinam Grass plant response rating (Surinam grass; [4]): 20; Cocklebur plant response rating (cocklebur; [4]): 70; Barnyardgrass plant response rating (barnyardgrass [3]; [6]): 20; Oat, Wild plant response rating (wild oat; [4]): 40; Velvetleaf plant response rating (velvetleaf; [4]): 30; Foxtail, Giant plant response rating (giant foxtail; [4]): 30; Lambsquarters plant response rating (lambsquarters; [4]): 80; Morningglory plant response rating (morningglory; [4]): 40; Plant response rating (0 to 100 scale), Corn (corn; 125 g ai/ha): 90; Corn plant response rating (corn; [4]): 30; Corn plant response rating (corn; [5]): 60; Wheat plant response rating (wheat; [4]): 20; Wheat plant response rating (wheat; [7]): 100; Wheat plant response rating (wheat; [5]): 30; Plant response rating (0 to 100 scale), Crabgrass, Large (large crabgrass; 125 g ai/ha): 100; Crabgrass, Large plant response rating (large crabgrass; [4]): 20; Crabgrass, Large plant response rating (large crabgrass; [5]): 50 |
| CCc1nn(C(C)(C)C)nc1C(=S)Nc1cccc(C(=S)N(C)C)c1 [Compound 396] | 90 | 70 | 90 | 30 | 40 | 60 | 80 | 70 | 90 | 90 | 20 | 30 | 80 | 50 | 100 | 30 | 100 | 100 | 60 | 60 | Pigweed plant response rating (pigweed; [4]): 40; Surinam Grass plant response rating (Surinam grass; [4]): 20; Cocklebur plant response rating (cocklebur; [4]): 20; Barnyardgrass plant response rating (barnyardgrass [3]; [6]): 10; Oat, Wild plant response rating (wild oat; [4]): 0; Velvetleaf plant response rating (velvetleaf; [4]): 20; Foxtail, Giant plant response rating (giant foxtail; [4]): 20; Lambsquarters plant response rating (lambsquarters; [4]): 80; Morningglory plant response rating (morningglory; [4]): 20; Plant response rating (0 to 100 scale), Corn (corn; 125 g ai/ha): 80; Corn plant response rating (corn; [4]): 10; Corn plant response rating (corn; [5]): 10; Wheat plant response rating (wheat; [4]): 10; Wheat plant response rating (wheat; [7]): 100; Wheat plant response rating (wheat; [5]): 20; Plant response rating (0 to 100 scale), Crabgrass, Large (large crabgrass; 125 g ai/ha): 100; Crabgrass, Large plant response rating (large crabgrass; [4]): 20; Crabgrass, Large plant response rating (large crabgrass; [5]): 20 |
| C=CCNC(=O)c1cccc(NC(=O)c2nn(C(C)(C)C)nc2CC)c1 [Compound 414] | 100 | 100 | 90 | 60 | 20 | 70 | 90 | 80 | 80 | 90 | 30 | 40 | 70 | 70 | 90 | 40 | 100 | 100 | 10 | 70 | Pigweed plant response rating (pigweed; [8]): 90; Surinam Grass plant response rating (Surinam grass; [8]): 20; Cocklebur plant response rating (cocklebur; [8]): 60; Barnyardgrass plant response rating (barnyardgrass [3]; Postemergence, 125 g ai/ha): 30; Oat, Wild plant response rating (wild oat; [8]): 30; Velvetleaf plant response rating (velvetleaf; [8]): 50; Foxtail, Giant plant response rating (giant foxtail; [8]): 30; Lambsquarters plant response rating (lambsquarters; [8]): 80; Morningglory plant response rating (morningglory; [8]): 20; Plant response rating (0 to 100 scale), Corn (corn; 125 g ai/ha): 70; Corn plant response rating (corn; [5]): 40; Corn plant response rating (corn; [8]): 30; Wheat plant response rating (wheat; [7]): 100; Wheat plant response rating (wheat; [5]): 20; Wheat plant response rating (wheat; [8]): 10; Plant response rating (0 to 100 scale), Crabgrass, Large (large crabgrass; 125 g ai/ha): 100; Crabgrass, Large plant response rating (large crabgrass; [5]): 70; Crabgrass, Large plant response rating (large crabgrass; [8]): 30 |
